Measurements as given in US7026328B2, “Heterocyclic compounds which inhibit leukocyte adhesion mediated by α4 integrins” (Elan Pharmaceuticals, Inc., priority 2002, dated 2006).

Tests used:
[1] = Cassette Dosing and Serum Analysis for Determination of Bioavailability; format: in vivo, rat; details: average AUC 0→12 h, male Sprague Dawley rats, single oral cassette dose (6 compounds, total dose 10 mg/kg), plasma
Description: The cassette included 5 test articles and a standard compound, for a total dose of 10 mg/kg. Each compound/test article was converted to the sodium salt with equimolar 1 N NaOH and dissolved in water at 2 mg/mL. The cassette was prepared by mixing equal volumes of each of the six solutions. The cassette dosing solution was mixed well and then the pH was adjusted to 7.5–9. The dosing solution was prepared the day before the study and stirred overnight at room temperature.
Male Sprague Dawley (SD) rats from Charles River Laboratories, 6–8 weeks old were used in this screen. Rats were quarantined for at least one day and had continuous access to food and water. On the night before the administration of the cassette, the rats were fasted for approximately 16 h.
Four SD rats were assigned in each cassette. A single dose of the dosing solution was administered orally to each rat. The dosing volume (5 mL/kg) and time were recorded and rats were fed 2 h after dosing.
Blood samples were collected via cardiac puncture at the following time points: 4 h, 8 h and 12 h. Immediately prior to blood collection, rats were anesthetized with CO2 gas within 10–20 seconds. After the 12-h samples were collected, the rats were euthanized via CO2 asphyxiation followed by cervical dislocation.
Blood samples were kept in heparinized microtainer tubes under sub-ambient temperature (4° C.) before they were processed. Blood samples were centrifuged (10000 rpm for 5 minutes) and plasma samples were removed and stored in a −20° C. freezer until analyzed for drug levels. Drug levels in the plasma were analyzed using the following protocol for direct plasma precipitation.
The in vivo plasma samples were prepared in a 1.5 mL 96-well plate, by adding, in order, 100 μL of the test plasma, 150 μL of methanol, followed by vortexing for 10–20 seconds. 150 μL of 0.05 ng/μL of an Internal Standard in acetonitrile were added and vortexed for 30 seconds.
The standard curve samples were prepared in a 1.5 mL 96-well plate, by adding, in order, 100 μL of control mouse plasma, followed by 150 μL of methanol and vortexing for 10–20 seconds. 150 μL of 0.05 ng/μL of an Internal Standard in acetonitrile were added and vortexed for 30 seconds. The samples were spiked with 0–200 ng (10 concentrations) of the compound of interest in 50% methanol to obtain a standard curve range of 0.5 ng/mL–2,000 ng/mL. Again, the sample was vortexed for 30 seconds.
The samples were then spun for 20–30 minutes at 3000 rpm in an Eppendorf microfuge before 80–90% of supernatant was transferred into a clean 96-well plate. The organic solvent was then evaporated until the samples were dry (under N2 at 40° C./30–60 min (Zymark Turbovap)).
The residue was then dissolved in […] mobile phase (50% CH3OH/0.1% TFA). LC/MS/MS was then run using a PE-Sciex API-3000 triple quadurpole mass spectrometer (SN0749707), Perkin-Elmer, Series200auto-sampler, and shimadzu 10A pump. Acquisition was done with PE-Sciex Analyst (v1.1) and data analysis and quantification were accomplished using PE-Sciex Analyst (v1.1). A 5–50 μL sample volume was injected onto a reverse phase ThermoHypersil DASH-18 column (Keystone 2.0×20 mm, 5 μm, PN: 8823025-701) using a mobile phase of 25% CH3OH, 0.1% TFA-100% CH3OH, 0.1% TFA. The run time was about 8 minutes at a flow rate of about 300 μL/minutes.
The Area Under the Curve (AUC) was calculated using the linear trapezoidal rule from t=0 to the last sampling time tx (see Handbook of Basic Pharmacokinetics, Wolfgang A. Ritschel and Gregory L. Kearns, 5th ed, 1999). AUC^0→tx=S((Cn+Cn+1)/2))·(tn+1−tn)[(μg/mL)h]

α4β1 integrin = molecular target: T1, α4β1 integrin (Homo sapiens, UniProt P05556+P13612); test: α4β1 Integrin Adhesion Assay: Jurkat Cell Adhesion to Human Plasma Fibronectin; format: cell-based; details: Jurkat cells
T1 construct: Jurkat™ cells (maintained in log phase growth) were labeled with Calcein AM; endogenous in cells; host or cells: Jurkat cells
Description: 96 well plates (Costar 3590 EIA plates) were coated with human fibronectin (Gibco/BRL, cat #33016–023) at a concentration of 10 μg/mL overnight at 4° C. The plates were then blocked with a solution of bovine serum albumin (BSA; 0.3%) in saline. Jurkat™ cells (maintained in log phase growth) were labeled with Calcein AM according to the manufacturer's instructions, and suspended at a concentration of 2×10^6 cells/mL in Hepes/Saline/BSA. The cells were then exposed to test and control compounds for 30 minutes at room temperature before transfer to individual wells of the fibronectin coated plate. Adhesion was allowed to occur for 35 minutes at 37° C. The wells were then washed by gentle aspiration and pipetting with fresh saline. Fluorescence associated with the remaining adherent cells was quantified using a fluorescence plate reader at EX 485/EM 530.
Cell cultures were prepared by first splitting the stationary phase Jurkat™ cells at 1:10 on day one, and 1:2 on day two to perform assay on day 3. The cells split 1:10 on day one were split 1:4 on day 3 for a day 4 assay.
The assay plates were prepared by first making a working solution of Gibco/BRL Human Fibronectin (cat #33016-023) in PBS++, at 10 μg/mL. A Costar 3590 EIA plate was then coated with 50 μL/well for 2 hours at room temperature (thought it can also be left overnight at 4° C.). Finally the plate was asperated and blocked with Hepes/Saline Buffer, 100 μL/well, for 1 hour at RT followed by washing 3× with 150 μL of PBS++.
Compound dilutions were accomplished by preparing 1:3 serial dilutions of compounds as follows. For each plate (4 compounds/plate) 600 μL were added to 4 Bio-Rad Titertubes in a Titertube rack. […] Using Falcon Flexiplates, 100 μL of Hepes/Saline buffer or human serum were added to rows B through G. A multi-channel pipetter set to 180 μL was used to with four tips spaced evenly the pipetter. Each set of four tubes was mixed 5 times and 180 μL of 2× compound was transferred to the first column of each compound dilution in Row B, leaving Row A empty. 180 μL were added to the other wells in Row A. Serial dilutions were performed down the plate by transferring 50 μL to the next dilution and mixing 5 times, changing tips each time after mixing.
A 20 μg/mL solution in Hepes/Saline buffer or human serum, of 21/6 antibody was the positive control and was set aside in a reagent trough to add to cell suspension plate.
The cell staining was accomplished by first harvesting the log-phase Jurkat™ cells by centrifugation in 50 mL tubes (1100 rpm for 5 minutes). The cells were resuspended in 50 mL PBS++, spun, and resuspend in 20 mL PBS++. The cells were stained by adding 20 μL of Calcein AM for 30 minutes RT. The volume was brought to 50 mL with Hepes/Saline buffer and the cells were counted, spun, and resuspend to 2×10^6 cells/mL in Hepes/Saline buffer or human serum.
The compounds were incubated using the following procedure. In a new flexiplate, 65 μL of stained cells were added to Rows B through H. Then 65 μL of 2× compounds were added to the appropriate rows following the plate setup and mixed three times. 65 μL of 2×-21/6 antibody were added to Row H and mixed 3×. Finally the plate was incubated at room temperature for 30 minutes.
Fibronectin adhesion was measured using a fluorescent plate reader at EX 485/EM 530 after the following work up procedure. After incubation, the cells were mixed three times and 100 μL were transfered to the Fibronectin coated plates and incubated at 37° C. for about 35 minutes. Each plate was washed, row by row, by gently pipetting 100 μL of RT. PBS++ down the sides of the wells and turning the plate 90 degrees to aspirate. This procedure was repeated for a total of 3 washes. Each well was filled with 100 μL after washing by pipetting down the side of the well.
An IC50 value was calculated for each compound, both in the presence of the human serum and in the absence of human serum.

T1 sequence (P13612 34-1032): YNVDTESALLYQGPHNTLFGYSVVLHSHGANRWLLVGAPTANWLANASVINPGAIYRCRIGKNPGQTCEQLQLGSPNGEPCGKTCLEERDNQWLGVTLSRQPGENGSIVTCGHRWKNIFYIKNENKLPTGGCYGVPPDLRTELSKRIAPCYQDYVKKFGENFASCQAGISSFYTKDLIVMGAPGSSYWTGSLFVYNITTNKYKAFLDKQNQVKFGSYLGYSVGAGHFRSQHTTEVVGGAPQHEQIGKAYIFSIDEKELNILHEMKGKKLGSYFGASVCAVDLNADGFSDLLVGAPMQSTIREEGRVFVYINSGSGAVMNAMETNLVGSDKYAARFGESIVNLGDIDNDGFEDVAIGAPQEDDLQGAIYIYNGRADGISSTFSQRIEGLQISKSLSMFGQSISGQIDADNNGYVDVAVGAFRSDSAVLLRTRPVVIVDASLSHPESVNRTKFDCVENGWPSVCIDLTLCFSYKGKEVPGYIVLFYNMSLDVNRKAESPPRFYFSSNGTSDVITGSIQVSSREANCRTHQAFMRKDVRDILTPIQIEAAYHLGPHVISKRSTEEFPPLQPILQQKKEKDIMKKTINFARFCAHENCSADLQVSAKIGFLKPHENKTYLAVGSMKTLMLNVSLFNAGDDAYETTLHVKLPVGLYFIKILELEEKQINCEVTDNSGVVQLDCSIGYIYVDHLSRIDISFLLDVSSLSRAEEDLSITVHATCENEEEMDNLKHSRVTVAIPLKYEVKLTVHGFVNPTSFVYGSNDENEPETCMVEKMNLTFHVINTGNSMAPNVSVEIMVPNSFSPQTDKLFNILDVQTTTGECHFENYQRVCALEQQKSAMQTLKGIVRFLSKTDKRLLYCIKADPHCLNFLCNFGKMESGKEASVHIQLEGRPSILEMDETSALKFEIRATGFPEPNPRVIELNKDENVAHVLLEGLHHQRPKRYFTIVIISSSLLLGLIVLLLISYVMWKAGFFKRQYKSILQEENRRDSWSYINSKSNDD
T1 sequence (P05556 21-798): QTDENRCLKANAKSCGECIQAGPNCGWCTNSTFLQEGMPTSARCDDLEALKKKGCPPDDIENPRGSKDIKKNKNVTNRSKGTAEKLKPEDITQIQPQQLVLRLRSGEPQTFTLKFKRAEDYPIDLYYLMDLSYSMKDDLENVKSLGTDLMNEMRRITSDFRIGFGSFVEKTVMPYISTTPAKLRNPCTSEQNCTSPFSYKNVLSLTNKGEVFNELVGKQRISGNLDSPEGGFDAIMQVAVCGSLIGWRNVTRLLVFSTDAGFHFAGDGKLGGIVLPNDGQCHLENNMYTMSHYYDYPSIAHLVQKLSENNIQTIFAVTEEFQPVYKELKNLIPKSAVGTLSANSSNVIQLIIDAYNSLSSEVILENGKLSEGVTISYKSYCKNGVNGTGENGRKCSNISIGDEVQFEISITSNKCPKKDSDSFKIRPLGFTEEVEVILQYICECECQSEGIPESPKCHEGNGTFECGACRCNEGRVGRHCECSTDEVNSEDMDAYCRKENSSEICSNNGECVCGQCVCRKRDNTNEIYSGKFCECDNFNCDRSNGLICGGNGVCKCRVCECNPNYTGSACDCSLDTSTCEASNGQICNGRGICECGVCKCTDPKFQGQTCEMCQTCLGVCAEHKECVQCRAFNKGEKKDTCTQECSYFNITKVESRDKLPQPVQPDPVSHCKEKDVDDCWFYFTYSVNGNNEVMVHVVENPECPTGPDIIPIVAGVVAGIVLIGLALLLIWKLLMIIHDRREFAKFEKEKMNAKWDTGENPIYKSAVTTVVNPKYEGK

Row | AUC [1] | IC50 (α4β1 integrin; containing human serum) [nM] | IC50 (α4β1 integrin; without the human serum) [nM] | SMILES
1 | 90.317 (μg/mL)h |  |  | C#CCN(c1cnc(N(CC)CC)nc1N[C@@H](Cc1ccc(OC(=O)N2CCCC2)cc1)C(=O)O)S(=O)(=O)c1ccc(F)cc1 [Example 15, N-(2-[N′,N′-diethylamino]-5-[N″-(4-fluorophenylsulfonyl)-N″-propargylamino]pyrimidin-4-yl)-4′-(pyrrolidin-1-ylcarbonyloxy)-L-phenylalanine]
2 | 4.7528 (μg/mL)h | 480 | 5.86 | C#CCN(c1cnc(N(CC)CC)nc1N[C@@H](Cc1ccc(OC(=O)N2CCC2)cc1)C(=O)O)S(=O)(=O)c1ccc(F)cc1 [Example 18, N-(2-[N′,N′-diethylamino]-5-[N″-(4-fluorophenylsulfonyl)-N″-propargylamino]pyrimidin-4-yl)-4′-(azetidin-1-ylcarbonyloxy)-L-phenylalanine]
3 | 2.0774 (μg/mL)h | 207 | 3.24 | CCN(CC)c1ncc(N(C)S(=O)(=O)c2ccc(Cl)cc2)c(N[C@@H](Cc2ccc(OC(=O)N3CCC3)cc2)C(=O)O)n1 [Example 9]
4 | 0.8628 (μg/mL)h | 125 | 5.24 | C#CCN(c1cnc(N(CC)CC)nc1N[C@@H](Cc1ccc(OC(=O)N2CCC2)cc1)C(=O)O)S(=O)(=O)c1ccc(F)cc1F [Example 17, N-(2-[N′,N′-diethylamino]-5-[N″-(2,4-difluorophenylsulfonyl)-N″-propargylamino]pyrimidin-4-yl)-4′-(azetidin-1-ylcarbonyloxy)-L-phenylalanine]
5 | 2.1654 (μg/mL)h | 1570 | 6 | CCN(CC)c1ncc(N(C)S(=O)(=O)c2ccc(F)cc2)c(N[C@@H](Cc2ccc(OC(=O)N3CCCCC3)cc2)C(=O)O)n1 [Example 5, N-(2-[N′,N′-diethylamino]-5-[N″-(4-fluorophenylsulfonyl)-N″-methylamino]pyrimidin-4-yl)-4′-(piperidin-1-ylcarbonyloxy)-L-phenylalanine]
6 | 14.798 (μg/mL)h | 409 | 17 | CCN(CC)c1ncc(N(CC)S(=O)(=O)c2ccc(Cl)cc2)c(N[C@@H](Cc2ccc(OC(=O)N3CCCC3)cc2)C(=O)O)n1 [Example 1, N-(2-[N′,N′-diethylamino]-5-[N″-(4-chlorophenylsulfonyl)-N″-ethylamino]pyrimidin-4-yl)-4′-(pyrrolidin-1-ylcarbonyloxy)-L-phenylalanine]
7 | 0.8979 (μg/mL)h | 86.2 | 1.63 | CCN(CC)c1ncc(N(CC)S(=O)(=O)c2ccc(F)cc2)c(N[C@@H](Cc2ccc(OC(=O)N3CCC3)cc2)C(=O)O)n1 [Example 7, N-(2-[N′,N′-diethylamino]-5-[N″-(4-fluorophenylsulfonyl)-N″-ethylamino]pyrimidin-4-yl)-4′-(azetidin-1-ylcarbonyloxy)-L-phenylalanine]
8 | 13.829 (μg/mL)h | 2280 | 19 | CCN(CC)c1ncc(N(C)S(=O)(=O)c2ccc(Cl)cc2)c(N[C@@H](Cc2ccc(OC(=O)N3CCCC3)cc2)C(=O)O)n1 [Example 4, N-(2-[N′,N′-diethylamino]-5-[N″-(4-chlorophenylsulfonyl)-N″-methylamino]pyrimidin-4-yl)-4′-(pyrrolidin-1-ylcarbonyloxy)-L-phenylalanine]
9 | 4.7816 (μg/mL)h | 227 | 8.71 | CCN(CC)c1ncc(N(CC)S(=O)(=O)c2ccc(F)cc2F)c(N[C@@H](Cc2ccc(OC(=O)N3CCCC3)cc2)C(=O)O)n1 [Example 12, N-(2-[N′,N′-diethylamino]-5-[N″-(2,4-difluorophenylsulfonyl)-N″-ethylamino]pyrimidin-4-yl)-4′-(pyrrolidin-1-ylcarbonyloxy)-L-phenylalanine]
10 | 14.818 (μg/mL)h | 483 | 8.37 | CCN(CC)c1ncc(N(C)S(=O)(=O)c2ccc(F)cc2F)c(N[C@@H](Cc2ccc(OC(=O)N3CCCC3)cc2)C(=O)O)n1 [Example 11, N-(2-[N′,N′-diethylamino]-5-[N″-(2,4-difluorophenylsulfonyl)-N″-methylamino]pyrimidin-4-yl)-4′-(pyrrolidin-1-ylcarbonyloxy)-L-phenylalanine]
11 | 15.971 (μg/mL)h | 604 | 1.59 | CCN(CC)c1ncc(N(CC)S(=O)(=O)c2ccc(F)cc2)c(N[C@@H](Cc2ccc(OC(=O)N3CCCC3)cc2)C(=O)O)n1 [Example 2, N-(2-[N′,N′-diethylamino]-5-[N″-(4-fluorophenylsulfonyl)-N″-ethylamino]pyrimidin-4-yl)-4′-(pyrrolidin-1-ylcarbonyloxy)-L-phenylalanine]
12 |  | 6280 | 6.93 | C#CCN(c1cnc(N(CC)CC)nc1N[C@@H](Cc1ccc(OC(=O)N2CCCC2)cc1)C(=O)O)S(=O)(=O)c1ccc(Cl)cc1 [Example 19, N-(2-[N′,N′-diethylamino]-5-[N″-(4-chlorophenylsulfonyl)-N″-propargylamino]pyrimidin-4-yl)-4′-(pyrrolidin-1-ylcarbonyloxy)-L-phenylalanine]
